Test results taken from US20060127381A1, “Live bacterial preparation of bacillus coagulans for the treatment of ulcerative colitis, method for producing the same and use thereof” (priority 2004, published 2006).
Marks after values point to notes of the source that are not given here.

Test system: experimental ulcerative colitis
Assay: DSS modeling and treatment of experimental ulcerative colitis in rat
Format: in vivo, SD rat
Conditions: SASP 0.02 g/ml i.g., twice a day for 21 days
Description: The producing method of live bacteria preparation of Bacillus coagulans for the treatment of ulcerative colitis comprises following steps: incubating Bacillus coagulans by fermentation; drying bacteria slurry after centrifugation to obtain live bacteria powder, which is then prepared as suitable dosage forms. Ulcerative colitis is characterized in that pathological change mostly occurs at rectum and sigmoid flexure, or throughout the whole colon. A microscopic examination of colon can show mucosal blooding, edema, erosion or superficial ulcertion on affected intestine with mucus and inflammatory exudate covered thereon. Bleeding, inflammatory cell infiltration, epithelial cell decreasing, crypt collapsing and distorting, abscess formation are also often found in microscopic examination. Chronic ulcer may heal to form scar or pseudopolyp. Experimental study is to administrate dextran sodium sulfate (DSS) to SD rat by i.g. and rectal injection to induce experimental ulcerative colitis model, and then subject the modeled rat to experimental treatment with a live bacterial tablet of Bacillus coagulans, whereby the treatment effect of tablet is evaluated. The use is to apply the live bacterial tablet of Bacillus coagulans to clinically treat patients suffering from ulcerative colitis, whereby the efficacy and safety of the live bacterial preparation for UC patients is evaluated.
60 rats were kept under a sterile environment before test. Normal intestinal flora was taken from stools in the rats' anuses and incubated. 10 rats were taken as normal control and other 50 rats as experimental group. According a modified UC rat modeling method (Xiaoping Wu etc., Chinese Journal of Digestion, Vol. 23(5):305, 2003), 3% dextran sodium sulfate (DSS) solution was i.g. administrated to rats with empty stomachs (1 ml/100 g), once a day for 7 days. At the last time, 1 ml/rat of DSS was additionally injected into recta through anuses. After 7 days, stools were taken for flora analysis. 10 rats were then sacrificed and colons were removed by laparocolectomy. The wet weights of colons were measured (g/100 g body weight). The colons was fixed with formaldehyde and stained with alcian blue solution (Sino-American Biotec). The point counts of ulcer and erosion parts were observed by naked eye. Areas (cm^2) of the largest stained blue points were measured with calipers. After the confirmation of UC formation, rats were divided into 4 groups, 10 rats per group. The rats were administrated i.g. with live bacteria tablet of Bacillus coagulans(BC) (10^7 cfU/ml, 10^6 cfU/ml), 0.02 g/ml salicylazosulfapyridine (SASP) and normal saline solution (NS), respectively, twice a day for 21 days, afterwhich the stools were taken for flora analysis. Thereafter, all of the rats were sacrificed. Colon specimens were treated according to above method and corresponding indicators were determined. In addition, intestinal tissue masses were sampled to prepare 5% homogenates, which were determined for their activities of myeloperoxidase (MPO) (U/g·wet slice) with myeloperoxidase test kit (Nanjing JianCheng Bioengineering Institute) by ultraviolet spectrometry (Beijing Technical Application Institute).
The intestinal flora was incubated and analyzed as follows. Fresh stools were extruded out from rats' anuses under sterile condition before or after modeling and after treatment, respectively. […]

O=C(O)c1cc(/N=N/c2ccc(S(=O)(=O)Nc3ccccn3)cc2)ccc1O [SASP, salicylazosulfapyridine]
Intestinal wet weight (g/100 g body weight): 0.54 ± 0.05**^Δ g/100 g body weight | Ulcer or erosion points, Count of Points: 2.20 ± 0.79**^ΔΔ | Ulcer or erosion points, area (cm^2): 0.22 ± 0.18**^Δ cm^2 | Body weight (g) After treatment (DSS-modeled rats): 264.00 ± 13.50 g | MPO activity (U/g wet weight) (intestinal tissue homogenate): 0.20 ± 0.10**^ΔΔ U/g wet weight
